According to US20160046592A1, “PHARMACEUTICAL COMPOSITION FOR THE TREATMENT OF DIABETES” (Ajinomoto Co., Inc., priority 2013, published 2016):
Counter-ions that a name gives are not always drawn.

Target: T1, PPAR-α (Homo sapiens, UniProt Q07869)
T1 construct: expressed in transfected cells; host or cells: CV-1 (African green monkey kidney)
T1 sequence (Q07869 167-468): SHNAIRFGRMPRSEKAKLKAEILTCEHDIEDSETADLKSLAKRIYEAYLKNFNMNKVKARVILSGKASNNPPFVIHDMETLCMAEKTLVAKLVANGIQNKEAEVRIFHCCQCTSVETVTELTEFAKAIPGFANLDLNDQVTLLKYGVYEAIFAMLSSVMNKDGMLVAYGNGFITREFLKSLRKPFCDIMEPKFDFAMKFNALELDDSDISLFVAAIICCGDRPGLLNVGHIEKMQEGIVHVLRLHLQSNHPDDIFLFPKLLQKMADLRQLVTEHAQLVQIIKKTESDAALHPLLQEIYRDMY
Assay: Measurement of PPAR-α activity (GAL4 luciferase reporter assay in CV-1 cells)
Assay type: cell-based
Conditions: 100(A/B): A = maximum PPAR-α activity of test compound at 3, 10, 30 and 100 μM, B = activity of the compound of WO/2011/058154 at 100 μM, 18 to 20 hours, read-out: Relative fold induction (%) of PPAR α
Method: The PPAR-α activity was measured according to the published article (THE JOURNAL OF BIOLOGICAL CHEMISTRY Vol. 270, No 0.22: 12953-12956, 1995).
Plasmids used for the PPAR-α activity measurement were constructed as follows. A luciferase expression plasmid (UAS×5-TK-Luc) used was obtained by introducing a sequence in which five yeast GAL4-binding sequences are linked in tandem into a portion upstream of a thymidine kinase promoter of pTAL-Luc (Takara Bio Inc., 6252-1). A PPAR-α receptor expression plasmid (hGR-GAL4-hPPARα) used was obtained by introducing a human GR N-terminal region (1-76aa), a yeast GAL4 DNA-binding region (1-147aa), and a PPARα ligand-binding region (167-468aa) between Not I and Sal I sites of pExchange-1 Core Vector (Invitrogen, 211176).
A reporter assay was conducted by the following method using African green monkey kidney-derived CV-1 cells. The CV-1 cells were seeded in a 96-well plate (Thermo Fisher Scientific K.K., 4938) at 2×10^4 cells/well by using a 10% FBS-containing DMEM (NACALAI TESQUE, INC., 0845874) medium. After culturing under conditions of 37° C. and 5% CO2 for 2 hours, the cells were transfected with the plasmids. The transfection was conducted by using Lipofectamine LTX (Invitrogen, 15338-100) according to the attached manual. The plasmid solution was prepared by adding a mixture solution of the luciferase expression plasmid and the PPAR-α receptor expression plasmid to OPTI-MEM I (Invitrogen, 11058-021). After the transfection, the test compound was added, and the cells were cultured at 37° C. in the presence of 5% CO2 for 18 to 20 hours. After the culturing, the luciferase activity was measured with Luminescensor JNR (ATTO) by using Bright-Glo (Promega, E2620).
The fold induction of PPAR-α by each test compound was calculated by the following method. A relative fold induction (%) of PPAR-α by the test compound was defined as 100 (A/B), where A represents the maximum value of the PPAR-α activities of the test compound at 3 μM, 10 μM, 30 μM, and 100 μM, and B represents the PPAR-α activity of the compound of WO/2011/058154 at 100 μM.

Compound	Emax [%]
COC(C)CN(CC(=O)O)C(=O)c1cccc(COc2ccc(-c3cc(F)c(F)cc3SC)cc2)c1 (stereo not drawn) [Example 45, 2-[[3-[[4-(4,5-Difluoro-2-methylsulfanyl-phenyl)phenoxy]methyl]benzoyl]-(2-methoxypropyl)amino]acetic Acid]	25
CSc1cc(F)c(F)cc1-c1ccc(OCc2cccc(C(=O)N(CC(=O)O)CC3CCS(=O)(=O)C3)c2)cc1 (stereo not drawn) [Example 46, 2-[[3-[[4-(4,5-Difluoro-2-methylsulfanyl-phenyl)phenoxy]methyl]benzoyl]-[(1,1-dioxothiolan-3-yl)methyl]amino]acetic Acid]	4.6
CSc1cc(F)c(F)cc1-c1ccc(OCc2cccc(C(=O)N(CC(=O)O)Cc3cnco3)c2)cc1 [Example 47, 2-[[3-[[4-(4,5-Difluoro-2-methylsulfanyl-phenyl)phenoxy]methyl]benzoyl]-(oxazol-5-ylmethyl)amino]acetic Acid]	7.3
CSc1cc(F)c(F)cc1-c1ccc(OCc2cccc(C(=O)N(CC(=O)O)[C@H]3CC[C@@H](N)CC3)c2)cc1 [Example 48, 2-[(4-Aminocyclohexyl)-[3-[[4-(4,5-difluoro-2-methylsulfanyl-phenyl)phenoxy]methyl]benzoyl]amino]acetic Acid Trifluoroacetate]	4
COCCOCCN(CC(=O)O)C(=O)c1cccc(COc2ccc(-c3cc(F)c(F)cc3SC)cc2)c1 [Example 49, 2-[[3-[[4-(4,5-Difluoro-2-methylsulfanyl-phenyl)phenoxy]methyl]benzoyl]-[2-(2-methoxyethoxy)ethyl]amino]acetic Acid]	29
CSc1cc(F)c(F)cc1-c1ccc(OCc2cccc(C(=O)N(CC(=O)O)CC3CCCNC3)c2)cc1 (stereo not drawn) [Example 50, 2-[[3-[[4-(4,5-Difluoro-2-methylsulfanyl-phenyl)phenoxy]methyl]benzoyl]-(3-piperidylmethyl)amino]acetic Acid Trifluoroacetate]	4.8
CSc1cc(F)c(F)cc1-c1ccc(OCc2cccc(C(=O)N(CCS(N)(=O)=O)CC(=O)O)c2)cc1 [Example 51, 2-[[3-[[4-(4,5-Difluoro-2-methylsulfanyl-phenyl)phenoxy]methyl]benzoyl]-(2-sulfamoylethyl)amino]acetic Acid]	5.8
CSc1cc(F)c(F)cc1-c1ccc(OCc2cccc(C(=O)N(CC(=O)O)Cc3cocn3)c2)cc1 [Example 52, 2-[[3-[[4-(4,5-Difluoro-2-methylsulfanyl-phenyl)phenoxy]methyl]benzoyl]-(oxazol-4-ylmethyl)amino]acetic Acid]	8.1
CSc1cc(F)c(F)cc1-c1ccc(OCc2cccc(C(=O)N(CC(=O)O)Cc3ccncn3)c2)cc1 [Example 53, 2-[[3-[[4-(4,5-Difluoro-2-methylsulfanyl-phenyl)phenoxy]methyl]benzoyl]-(pyrimidin-4-ylmethyl)amino]acetic Acid]	8.2
CSc1cc(F)c(F)cc1-c1ccc(OCc2cccc(C(=O)N(CC(=O)O)Cc3ccn[nH]3)c2)cc1 [Example 54, 2-[[3-[[4-(4,5-Difluoro-2-methylsulfanyl-phenyl)phenoxy]methyl]benzoyl]-(1H-pyrazol-5-ylmethyl)amino]acetic Acid]	8.7

The remaining lines, values ahead:

Emax [%]	Compound
11	CSc1cc(F)c(F)cc1-c1ccc(OCc2cccc(C(=O)N(CC(=O)O)Cc3ccnn3C)c2)cc1 [Example 55, 2-[[3-[[4-(4,5-Difluoro-2-methylsulfanyl-phenyl)phenoxy]methyl]benzoyl]-[(2-methylpyrazol-3-yl)methyl]amino]acetic Acid]
8	CNS(=O)(=O)CCN(CC(=O)O)C(=O)c1cccc(COc2ccc(-c3cc(F)c(F)cc3SC)cc2)c1 [Example 56, 2-[[3-[[4-(4,5-Difluoro-2-methylsulfanyl-phenyl)phenoxy]methyl]benzoyl]-[2-(methylsulfamoyl)ethyl]amino]acetic Acid]
10	CSc1cc(F)c(F)cc1-c1ccc(OCc2cccc(C(=O)N(CCS(=O)(=O)N(C)C)CC(=O)O)c2)cc1 [Example 59, 2-[[3-[[4-(4,5-Difluoro-2-methylsulfanyl-phenyl)phenoxy]methyl]benzoyl]-[2-(dimethylsulfamoyl)ethyl]amino]acetic Acid]
14	CSc1cc(F)c(F)cc1-c1ccc(OCc2cccc(C(=O)N(CCc3noc(C)n3)CC(=O)O)c2)cc1 [Example 60, 2-[[3-[[4-(4,5-Difluoro-2-methylsulfanyl-phenyl)phenoxy]methyl]benzoyl]-[2-(5-methyl-1,2,4-oxadiazol-3-yl)ethyl]amino]acetic Acid]
17	CSc1cc(F)c(F)cc1-c1ccc(OCc2cccc(C(=O)N3C[C@H](C(N)=O)C[C@H]3C(=O)O)c2)cc1 [Example 61, (2S,4R)-4-Carbamoyl-1-[3-[[4-(4,5-difluoro-2-methylsulfanyl-phenyl)phenoxy]methyl]benzoyl]pyrrolidine-2-carboxylic Acid]
20	CSc1cc(F)c(F)cc1-c1ccc(OCc2cccc(C(=O)N3[C@@H](CO)CC[C@H]3C(=O)O)c2)cc1 [Example 64, (2S,5R)-1-[3-[[4-(4,5-Difluoro-2-methylsulfanyl-phenyl)phenoxy]methyl]benzoyl]-5-(hydroxymethyl)pyrrolidine-2-carboxylic Acid]
7	COC[C@H]1CC[C@@H](C(=O)O)N1C(=O)c1cccc(COc2ccc(-c3cc(F)c(F)cc3SC)cc2)c1 [Example 65, (2S,5R)-1-[3-[[4-(4,5-Difluoro-2-methylsulfanyl-phenyl)phenoxy]methyl]benzoyl]-5-(methoxymethyl)pyrrolidine-2-carboxylic Acid]
22	CSc1cc(F)c(F)cc1-c1ccc(OCc2cccc(C(=O)N(CC(=O)O)Cc3ccon3)c2)cc1 [Example 66, 2-[[3-[[4-(4,5-Difluoro-2-methylsulfanyl-phenyl)phenoxy]methyl]benzoyl]-(isoxazol-3-ylmethyl)amino]acetic Acid]
19	CSc1cc(F)c(F)cc1-c1ccc(OCc2cccc(C(=O)N(CC(=O)O)Cc3coc(C)n3)c2)cc1 [Example 67, 2-[[3-[[4-(4,5-Difluoro-2-methylsulfanyl-phenyl)phenoxy]methyl]benzoyl]-[(2-methyloxazol-4-yl)methyl]amino]acetic Acid]
35	CSc1cc(F)c(F)cc1-c1ccc(OCc2cccc(C(=O)N(CC(=O)O)Cc3nc(C)no3)c2)cc1 [Example 68, 2-[[3-[[4-(4,5-Difluoro-2-methylsulfanyl-phenyl)phenoxy]methyl]benzoyl]-[(3-methyl-1,2,4-oxadiazol-5-yl)methyl]amino]acetic Acid]
23	CSc1cc(F)c(F)cc1-c1ccc(OCc2cccc(C(=O)N(CC(=O)O)Cc3noc(C)n3)c2)cc1 [Example 69, 2-[[3-[[4-(4,5-Difluoro-2-methylsulfanyl-phenyl)phenoxy]methyl]benzoyl]-[(5-methyl-1,2,4-oxadiazol-3-yl)methyl]amino]acetic Acid]
14	CSc1cc(F)c(F)cc1-c1ccc(OCc2cccc(C(=O)N(CCn3cncn3)CC(=O)O)c2)cc1 [Example 70, 2-[[3-[[4-(4,5-Difluoro-2-methylsulfanyl-phenyl)phenoxy]methyl]benzoyl]-[2-(1,2,4-triazol-1-yl)ethyl]amino]acetic Acid]
20	CSc1cc(F)c(F)cc1-c1ccc(OCc2cccc(C(=O)N(CC(=O)O)Cc3cscn3)c2)cc1 [Example 71, 2-[[3-[[4-(4,5-Difluoro-2-methylsulfanyl-phenyl)phenoxy]methyl]benzoyl]-(thiazol-4-ylmethyl)amino]acetic Acid]
12	CSc1cc(F)c(F)cc1-c1ccc(OCc2cccc(C(=O)N3C(CC#N)CC[C@H]3C(=O)O)c2)cc1 (stereo partly drawn) [Example 72, (2S)-5-(Cyanomethyl)-1-[3-[[4-(4,5-difluoro-2-methylsulfanyl-phenyl)phenoxy]methyl]benzoyl]pyrrolidine-2-carboxylic Acid]
